From US10172899B2, “Composition for preventing, treating and improving of voiding dysfunction comprising extract from Piper longum L” (priority 2014, dated 2019)

Assays:
muscarinic M2 receptor = target: T1, muscarinic M2 receptor (Homo sapiens, UniProt P08172); test: Relief of acetylcholine inhibition of forskolin-induced cAMP in human bladder smooth muscle cells (ELISA); format: cell-based; conditions: 10 μM, with Forskolin 10 μM + ACh 10 μM
T1 construct: The human bladder smooth muscle Cells (hBdSMC) where the muscarinic M2 receptor had been expressed were purchased from Lonza; host or cells: human bladder smooth muscle cells (hBdSMC)
T1 sequence (P08172 1-466): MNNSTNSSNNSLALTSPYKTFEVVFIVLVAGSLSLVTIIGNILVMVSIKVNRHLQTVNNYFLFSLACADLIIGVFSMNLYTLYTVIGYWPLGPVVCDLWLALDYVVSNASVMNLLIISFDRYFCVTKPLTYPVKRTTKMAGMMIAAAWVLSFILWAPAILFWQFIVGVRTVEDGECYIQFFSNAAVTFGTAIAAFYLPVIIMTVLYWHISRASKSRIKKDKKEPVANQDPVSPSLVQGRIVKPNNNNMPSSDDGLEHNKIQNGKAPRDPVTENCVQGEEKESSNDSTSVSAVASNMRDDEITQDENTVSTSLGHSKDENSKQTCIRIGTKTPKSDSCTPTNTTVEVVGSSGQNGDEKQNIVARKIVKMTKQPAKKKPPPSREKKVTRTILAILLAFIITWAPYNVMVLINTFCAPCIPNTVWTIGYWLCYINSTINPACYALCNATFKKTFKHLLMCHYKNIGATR
Excerpt: It is known that when muscarinic M2 receptor, which is one of GPCR (G protein-coupled receptors), is coupled with acetylcholine being an agonist it inhibits activity of adenylyl cyclase enzyme to decrease a concentration of cAMP in cells, in which if the amount of cAMP increases, detrusor is relaxed, or otherwise if the amount of cAMP decreases, detrusor is contracted. Therefore, in confirming improvement of voiding dysfunction, it is important to identify an effect of being capable of increasing or decreasing the amount of cAMP. Accordingly, it was identified whether or not the extract of Piper Longum L. has activity of inhibiting muscarinic receptor that may inhibit decrease of a concentration of cAMP by acetylcholine, by pre-treating 95% by volume of aqueous solution of ethanol extract of Piper Longum L., treating it with acetylcholine which may serve as an activator of muscarinic M2 receptor to induce decrease of a concentration of cAMP, and treating it with Forskolin that may raise a concentration of cAMP in cells. More specifically, the procedure is as follows.
The human bladder smooth muscle Cells (hBdSMC) where the muscarinic M2 receptor had been expressed were purchased from Lonza (cambrex), and used. […] The amount of cAMP in cells was evaluated by measuring absorbance (408 nm) with an ELISA kit from the supernatant taken after centrifuging cells dissolved in 0.1M HCl.

[1] = test system: CYP-induced cystitis rat model; test: Cystometry in CYP-induced cystitis model, ethanol and water extracts (Example 6.3); format: in vivo; conditions: extracts 200 mg/kg, oxybutynin 0.3 mg/kg
Method: (§1) To measure bladder pressure, bladder capacity and voiding volume, which are parameters for identifying improvement of voiding dysfunction, cyclophosphamide (150 mg/kg) was once intraperitoneally administered to rats excluding a normal control group to induce irritable bladder symptoms at 3 days before cystometry. From 3 Days before cystometry, a solvent (DMSO/10% Cremophor EL=1:9, vol/vol) had been administrated to a solvent control group, and 95% by volume of aqueous ethanol solution extract of Piper Longum L. fruits prepared in Preparation Example 4.1 had been administrated to an experimental group at 200 mg/kg. In addition, oxybutynin as a positive control group was injected via a caudal vein at 0.3 mg/kg on the day of experiment.
(§2) For cystometry and injection of a physiological saline solution, instruments for cystometry and insertion of a bladder vessel were the same as in the above Example 5.2, and voiding volume and residual volume were recorded by sampling urine in a 1.5 ml tube and measuring its weight.
The basal pressure (BP), threshold pressure (TP), micturition pressure (MP) and micturition interval (MI) which are defined as in the above Example 5.2. […] A bladder capacity (BC) was calculated by combining the measured residual volume (RV) and voiding volume (VV) of the rat. […]

[2] = test system: CYP-induced cystitis rat model; test: Cystometry in CYP-induced cystitis model after dosing for 3 days (Example 6.2); format: in vivo; conditions: extract 200 mg/kg from 3 days before cystometry; oxybutynin 0.3 mg/kg via caudal vein on the day
Method: 65 of specific pathogen-free (SPF) SD female rats were purchased from ORIENT (Korea) and used. Day and night were controlled by a 12 hour cycle, and they were allowed to access to food and water freely.
as §1, §2
The basal pressure (BP), threshold pressure (TP), micturition pressure (MP) and micturition interval (MI) which are defined as in the above Example 5.2. In addition, a voiding volume being an parameter of volume parameter was defined by sampling urine in a 1.5 ml tube on the last voiding during urodynamic measurements and measuring its weight. After completing micturition, a residual volume was defined by placing the catheter inserted into bladder at the lower portion than the rat and measuring the weight of the obtained physiological saline. A bladder capacity (BC) was calculated by combining the measured residual volume (RV) and voiding volume (VV) of the rat.
The voiding cycles were measured for 120 minutes, and the average values of each parameter were calculated by selecting the most representative 5 continuous cycles among the measured voiding cycles.

[3] = test system: spontaneously hypertensive rat (SHR); test: Urodynamic study in SHR under un-anesthesia; format: in vivo
Method: 12˜18 Week-old male SHRs were purchased from Charles River (Japan) and used. Day and night were controlled by a 12 hour cycle, and they were allowed to access to food and water freely. All the rats had to urinate at 3-5 cycles under a condition with no administration. The micturition parameters of rats under a condition with no administration were considered as control groups for urodynamic parameters, while the rats, to which the water extract of Piper Longum L. fruits prepared in Preparation Example 4.2 was directly administered into gastrointestinal tracts at 300 mg/kg via catheters coupled to stomachs, became experimental groups. As a positive control group, rats administered with tolterodine at 1 mg/kg were used. The Piper Longum L. water extract and tolterodine-dosing groups were each set by 6 rats.
To measure bladder pressure, bladder capacity, voiding volume and micturition interval, which are parameters for identifying improvement of voiding dysfunction, insertion of a bladder tube and a vessel for measuring an abdominal pressure was carried out in SHR models. For cystometry and injection of a physiological saline solution, a rat was incised in center of its lower abdomen 3 days before the day of measuring urodynamic parameters, and a cuffed polyethylene catheter with a cuff (PE-50, Becton Dickinson, Parsippany, USA) was fixed on its bladder dome with purse-string suture. In addition, a polyethylene catheter (PE-10, Becton Dickinson, Parsippany, USA) with a balloon for measuring abdominal pressure was fixed on the bladder, and another polyethylene catheter (PE-10, Becton Dickinson, Parsippany, USA) was fixed following being inserted in the gastrointestinal tract. The above catheters were passed through beneath skin, and then fixed on dorsal skin, the ends of which were closed by applying heat. An un-anesthetized rat being free was placed in a metabolic cage at 3 days after inserting a bladder tube and a vessel for measuring an abdominal pressure. The tube on the back of its neck was coupled to a microinjection pump (PHD22/2000 pump; Harvard Apparatus) and a pressure transducer (Research Grade Blood Pressure Transducer; Harvard Apparatus, Holliston, USA) with a T-tube, and then intravesical pressures were measured, with injecting the physiological saline solution at room temperate at a speed of 10 ml/hour. It is to measure intravesical pressures in the rat using a principle that when a predetermined volume of physiological saline solution is filled in the bladder, it is contracted to urinate. The abdominal pressure was measured by coupling the vessel for measuring abdominal pressure to the other pressure transducer. Also, to measure a voiding volume being an indicator of volume parameter, the voiding volume was measured from a urine amount collected in a urine collector cup (fluid collector) coupled to a force displacement transducer (Research Grade Isometric Transducer; Harvard Apparatus).
Beginning to measure urodynamic parameters before administration of the extracts of Piper Longum L. and tolterodine, records of 3 to 5 stabilized micturition cycles were obtained. Then, the Piper Longum L. extracts and tolterodine were orally administered after decoupling the catheter. The catheters were again coupled thereto 20 minutes after oral administration of drugs, and voiding cycles and urodynamic study were carried out by having the rat to urinate 3 to 5 times. The average values of each parameter were measured by selecting the most representative 3 continuous cycles from voiding cycles measured before and after administration of drug.
In 3 repeated voiding cycles, a basal pressure (BP), which is an parameter of intravesical pressure, is the lowest pressure in cystometry, a threshold pressure (TP) is a pressure immediately before micturition contraction, and a micturition pressure (MP) means the maximum bladder pressure represented on voiding. […]

[4] = After Dosing, water extract 300 mg/kg, tolterodine 1 mg/kg
[5] = after vs before dosing, increase

Which results are given for `CCN(CC)CC#CCOC(=O)C(O)(c1ccccc1)C1CCCCC1` (stereo not drawn) [Oxybutynin, oxybutynin]?
cAMP (muscarinic M2 receptor): 28.21 pmol/mL; cAMP, % of forskolin (muscarinic M2 receptor): 91.39%; MI (micturition interval) [1]: 248.50 ± 144.43 s; VV (voiding volume) [1]: 0.24 ± 0.15 mL; BC (bladder capacity) [2]: 0.46 ± 0.14 mL; BP (basal pressure) [2]: 9.7 ± 3.1 cm H2O; MI (micturition interval) [2]: 221.54 ± 75.20 s; MP (micturition pressure) [2]: 29.2 ± 7.9 cm H2O; RV (residual volume) [2]: 0.30 ± 0.13 mL; TP (threshold pressure) [2]: 17.6 ± 4.3 cm H2O; VV (voiding volume) [2]: 0.16 ± 0.08 mL

Which results are given for `Cc1ccc(O)c([C@H](CCN(C(C)C)C(C)C)c2ccccc2)c1` [Tolterodine, tolterodine]?
BC (bladder capacity) [3, 4]: 0.41 ± 0.03 mL; BP (basal pressure) [3, 4]: 4.8 ± 1.1 cmH2O; MI (micturition interval) [3, 4]: 365.4 ± 31.8 s; MP (micturition pressure) [3, 4]: 50.5 ± 1.7 cmH2O; RV (residual volume) [3, 4]: 0 ± 0 mL; TP (threshold pressure) [3, 4]: 18.1 ± 1.7 cmH2O; VV (voiding volume) [3, 4]: 0.41 ± 0.03 mL; BC, Percentage Change (%) [3, 5]: 36.7% ↑; MI, Percentage Change (%) [3, 5]: 46.4% ↑; VV, Percentage Change (%) [3, 5]: 36.7% ↑
